Data reported in patent EP0094833A2, “Novel 1,2-benzisoxazole derivatives” (Dainippon Pharmaceutical Co., Ltd., priority 1982, dated 1983).
Values after ≈ are worked out from the molar mass of the structure shown. Structures can show the parent of a compound that is named as a salt. Where two headings read alike, the source gives them in different places.

How the values were obtained:
[1] = test system: guinea pig taenia-coli; assay: Inhibitory effect on contractile response induced by potassium chloride (Anti-KCl), isolated taenia-coli; format: cell-based; details: Cavia porcellus, read-out: IC50 (g/ml) Anti-KCl
Protocol: Experiment 2 Inhibitory effect on contractile response induced by potassium chloride (Anti-KC1) In the same manner as described in the above Experiment 1, isolated guinea pig taenia-coli about 3 cm in length was prepared, and mounted in Tyrode's solution. The contractile response was measured with an isometric transducer and recorded on recticorder. Each preparation was adjusted to a tension of .lg and allowed to equilibrate for 30 minutes before measuring the effects of the test compounds. Test compounds were applied to 5 minutes before adding potassium chloride (40 mM). Each Compound was tested in 2 - 3 concentrations.

[2] = test system: ileum; assay: Inhibitory effect on contractile response induced by acetylcholine (Anti-ACh), isolated ileum; format: cell-based, guinea pig; details: Cavia porcellus, read-out: Anti-ACh (IC50 : g/ml)
[3] = test system: spontaneous gastric motility; assay: Inhibitory effect on spontaneous gastric motility (Anti-SGM) in conscious rats; format: in vivo, male Wistar strain rats; details: Rat, maximum percent inhibition of initial spontaneous motility
Protocol: (§1) Experiment 3 Inhibitory effect on spontaneous gastric motility (Anti-SGM)
(§2) This effect was examined using male Wistar strain rats or male Albino strain rabbits, with chronically implanted strain gauge force transducer. The rats or rabbits were allowed to stand for 3 - 5 days for recovery from the surgery and fasted for 18 hours before experiment. Then, spontaneous gastric motility in conscious rats or rabbits was recorded and the sum of amplitude of each contraction was calculated every 15 minutes. Inhibitory effect of test compound by oral administration was expressed as a maximum percent inhibition of initial spontaneous motility.

[4] = test system: spontaneous gastric motility; assay: Inhibitory effect on spontaneous gastric motility (Anti-SGM) in conscious rabbits; format: in vivo, male Albino strain rabbits; details: Rabbit, 100 mg/kg po, maximum percent inhibition of initial spontaneous motility
Protocol: as §1, §2

[5] = guinea pig taenia-coli, potassium chloride 40 mM, test compound applied 5 minutes before
[6] = guinea pig ileum, acetylcholine 2 X 10^-8 g/ml, test compound applied 2 minutes before

Structure (SMILES)	IC50 [1, 5]	IC50 [2, 6]	also measured
O=C(OCCN1CCCCC1)C(c1noc2ccccc12)C1CCCCC1 (stereo not shown) [Example 9]	2.7 µg/mL (≈ 7.29 µM)	0.41 µg/mL (≈ 1.11 µM)	
CCN(CC)CC(C)OC(=O)C(c1noc2ccccc12)C1CCCCC1 (stereo not shown) [Example 4]	1.6 µg/mL (≈ 4.3 µM)	0.42 µg/mL (≈ 1.13 µM)	
CCN(CC)CCOC(=O)C(c1noc2ccccc12)C1CCCCC1 (stereo not shown) [Example 3]	1 µg/mL (≈ 2.79 µM)	0.12 µg/mL (≈ 0.335 µM)	
CC[N+](C)(CC)CCOC(=O)C(c1noc2ccccc12)C1CCCCC1 (racemic) [Example 34]		0.026 µg/mL	
CN1CCC(OC(=O)C(c2noc3ccccc23)C2CCCCC2)CC1 (stereo not shown) [Example 5]		0.037 µg/mL (≈ 0.104 µM)	
C[N+]1(C)CCC(OC(=O)C(c2noc3ccc(Cl)cc23)C2CCCCC2)CC1 (racemic) [Example 35]		0.057 µg/mL	
CCN(CC)CCCCOC(=O)C(c1noc2ccccc12)C1CCCCC1 (stereo not shown) [Example 8]		0.48 µg/mL (≈ 1.24 µM)	
CCN(CC)CCOC(=O)C(c1noc2ccc(Cl)cc12)C1CCCCC1 (stereo not shown) [Example 10]	3.3 µg/mL (≈ 8.4 µM)	0.87 µg/mL (≈ 2.21 µM)	
CCCC[N+]1(C)C2CC(OC(=O)C(CO)c3ccccc3)CC1C1OC12 (stereo not shown) [Scopolamine-N-butyl bromide, reference compound]		0.089 µg/mL	
CCN(CC)CC(C)OC(=O)C1CCCCC1(O)C1CCCCC1 (stereo not shown) [Rociverine, reference compound]	5.4 µg/mL (≈ 15.9 µM)	1.1 µg/mL (≈ 3.24 µM)	
CN1CCC(OC(=O)C(c2noc3ccc(Cl)cc23)C2CCCCC2)CC1.O=C(O)C(=O)O (stereo not drawn) [Example 2, 1-Methyl-4-piperidyl α-cyclohexyl-5-chloro-1,2-benzisoxazole-3-acetate oxalate]	3.2 µg/mL	0.34 µg/mL	
CCN(CC)CCCC(C)OC(=O)C(c1noc2ccccc12)C1CCCCC1 (stereo not shown) [Example 7]		0.69 µg/mL (≈ 1.72 µM)	
C[N+]1(C)CCC(OC(=O)C(c2noc3ccccc23)C2CCCCC2)CC1 (stereo not shown) [Example 33]		0.013 µg/mL	
O=C(OCCN1CCCC1)C(Cc1ccccc1)(Cc1ccccc1)c1noc2ccccc12 [Example 29]		0.96 µg/mL (≈ 2.11 µM)	
Br.CCN(CC)CCCOC(=O)C(c1noc2ccccc12)C1CCCCC1 (stereo not drawn) [Example 1, 3-Diethylaminopropyl α-cyclohexyl-1,2-benzisoxazole-3-acetate hydrobromide]	0.85 µg/mL	0.16 µg/mL	Inhibition (%) ([3]; 100 mg/kg po): 36%; Inhibition (%) ([3]; 200 mg/kg po): 49%; Inhibition (%) [4]: 52%
CN1CCC(OC(=O)C(Cc2ccccc2)(Cc2ccccc2)c2noc3ccccc23)CC1 [Example 28]	0.56 µg/mL (≈ 1.23 µM)	0.65 µg/mL (≈ 1.43 µM)	
CC[N+](C)(CC)CCCOC(=O)C(c1noc2ccccc12)C1CCCCC1 (stereo not shown) [Example 32]		0.21 µg/mL	
CC[N+]1(C)CCC(OC(=O)C(c2noc3ccccc23)C2CCCCC2)CC1.[Br-] (stereo not shown) [Example 31, 1-Ethyl-1-methyl-4-[2-(1,2-benzisoxazol-3-yl)-2-cyclohexylacetoxy]piperidinium bromide]		0.014 µg/mL	
COc1ccc(Cc2nccc3cc(OC)c(OC)cc23)cc1OC [Papaverine hydrochloride, reference compound]			IC50 [1]: 1.3 µg/mL; IC50 [2]: 13 µg/mL
